# Source: ChEMBL document CHEMBL1125172, “Voronoi binding site model of a polycyclic aromatic hydrocarbon binding protein” (J Med Chem, 1990)
# Tested on: Polycyclic aromatic hydrocarbon binding protein
# Settings: Mus musculus
# 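Note: competitive displacement of radiolabeled [3H]benzo[a]pyrene from its binding site on the protein taken from mouse liver.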
# Description: Competition for [3H]benzo[a]pyrene-binding site of polycyclic aromatic hydrocarbon binding protein (PBP) from mouse liver
row,SMILES,Delta Gm
1,Oc1ccc2cc3ccc4cccc5ccc(c2c1)c3c45,18.3
2,c1ccc2c(c1)ccc1c3ccccc3ccc21,17.9
3,c1cc2ccc3cccc4ccc(c1)c2c34,16.3
4,O[C@H]1c2cccc3ccc4c5ccccc5cc(c4c23)[C@@H]1O,17.4
5,Cc1ccc2cc3c(ccc4ccccc43)c3c2c1CC3,17.4
6,c1ccc2c(c1)cc1ccc3cccc4ccc2c1c34,19
7,Nc1ccc2c(c1)Cc1ccccc1-2,11.9
8,Nc1cc2ccccc2c2ccccc12,15.2
9,Nc1cccc2cc3ccccc3cc12,15.2
10,C1=Cc2cc3cccc4ccc5ccc1c2c5c43,15.8
11,O[C@H]1C=Cc2c(cc3ccc4cccc5ccc2c3c45)[C@@H]1O,18.4
12,Nc1cccc2ccccc12,14.4
13,O[C@@H]1C=Cc2cc3ccc4cccc5ccc(c2[C@H]1O)c3c45,18.9
14,O[C@H]1C=C2c3ccccc3-c3cccc(c32)[C@@H]1O,17.7
15,c1ccc2cc3c4ccccc4c4ccccc4c3cc2c1,18.6
16,c1ccc2c(c1)-c1cccc3cccc-2c13,17.8
